Measured values: US9695155B2, “Herbicidal substituted pyrimidinyloxy benzene compounds” (E. I. DU PONT DE NEMOURS AND COMPANY, priority 2013, dated 2017)

What was measured:
arrowleaf sida = assay: Test E preemergence; type: in vivo, Sida rhombifolia; conditions: for Arrowleaf Sida plant response rating: scale 0 to 100 (0 no effect, 100 complete control); for Plant response rating, Arrowleaf Sida: scale 0 to 100, 0 no effect, 100 complete control
Procedure, shortened: (§1)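 Compound in a non-phytotoxic solvent mixture with surfactant was applied preemergence to seeds in silt loam soil, or postemergence to plants 2 to 18 cm tall grown in peat-based potting medium. Plants were kept in a greenhouse for 14 to 21 days, then rated visually against untreated controls on a 0 (no effect) to 100 (complete control) scale.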

barnyardgrass [1] = assay: Test E preemergence; type: in vivo, Echinochloa crus-galli; conditions: for Barnyardgrass plant response rating: scale 0 to 100 (0 no effect, 100 complete control); for Plant response rating, Barnyardgrass: scale 0 to 100, 0 no effect, 100 complete control
Procedure, shortened: as §1

rice = assay: Test C flooded paddy test; type: in vivo, Oryza sativa; conditions: Flood, scale 0 to 100 (0 no effect, 100 complete control), 13 to 15 days
Procedure, shortened: (§2)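 Test compounds are applied straight into paddy water held 3 cm above the soil surface, with that flood maintained for the whole test. After 13 to 15 days in the greenhouse, each species is scored visually relative to controls.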

morningglory = assay: Test E preemergence; type: in vivo, Ipomoea coccinea; conditions: for Morningglory plant response rating: scale 0 to 100 (0 no effect, 100 complete control); for Plant response rating, Morningglory: scale 0 to 100, 0 no effect, 100 complete control
Procedure, shortened: as §1

giant foxtail = assay: Test E preemergence; type: in vivo, Setaria faberii; conditions: for Foxtail, Giant plant response rating: scale 0 to 100 (0 no effect, 100 complete control); for Plant response rating, Foxtail, Giant: scale 0 to 100, 0 no effect, 100 complete control
Procedure, shortened: as §1

johnsongrass = assay: Test E preemergence; type: in vivo, Sorghum halepense; conditions: for Johnsongrass plant response rating: scale 0 to 100 (0 no effect, 100 complete control); for Plant response rating, Johnsongrass: scale 0 to 100, 0 no effect, 100 complete control
Procedure, shortened: as §1

goosegrass = assay: Test E preemergence; type: in vivo, Eleusine indica; conditions: for Goosegrass plant response rating: scale 0 to 100 (0 no effect, 100 complete control); for Plant response rating, Goosegrass: scale 0 to 100, 0 no effect, 100 complete control
Procedure, shortened: as §1

field bindweed = assay: Test E preemergence; type: in vivo, Convolvulus arvensis; conditions: for Field Bindweed plant response rating: scale 0 to 100 (0 no effect, 100 complete control); for Plant response rating, Field Bindweed: scale 0 to 100, 0 no effect, 100 complete control
Procedure, shortened: as §1

sedge, umbrella = assay: Test C flooded paddy test; type: in vivo, Cyperus difformis; conditions: Flood, scale 0 to 100 (0 no effect, 100 complete control), 13 to 15 days
Procedure, shortened: as §2

corn = assay: Test E preemergence; type: in vivo, Zea mays; conditions: for Corn plant response rating: scale 0 to 100 (0 no effect, 100 complete control); for Plant response rating, Corn: scale 0 to 100, 0 no effect, 100 complete control
Procedure, shortened: as §1

barnyardgrass [2] = assay: Test C flooded paddy test; type: in vivo, Echinochloa crus-galli; conditions: Flood, scale 0 to 100 (0 no effect, 100 complete control), 13 to 15 days
Procedure, shortened: as §2

N#Cc1cccc(Oc2ncc(Br)cn2)c1-n1cc(C(F)(F)F)cn1 [Compound 59, 3-[(5-bromo-2-pyrimidinyl)oxy]-2-[4-(trifluoromethyl)-1H-pyrazol-1-yl]benzonitrile]
Arrowleaf Sida plant response rating (arrowleaf sida; 16 g ai/ha, preemergence): 50
Arrowleaf Sida plant response rating (arrowleaf sida; 31 g ai/ha, preemergence): 50
Plant response rating, Arrowleaf Sida (arrowleaf sida; Preemergence, 62 g ai/ha): 75
Plant response rating, Arrowleaf Sida (arrowleaf sida; preemergence, 125 g ai/ha): 100
Plant response rating, Arrowleaf Sida (arrowleaf sida; preemergence, 250 g ai/ha): 100
Barnyardgrass plant response rating (barnyardgrass [1]; 16 g ai/ha, preemergence): 0
Barnyardgrass plant response rating (barnyardgrass [1]; 31 g ai/ha, preemergence): 20
Plant response rating, Barnyardgrass (barnyardgrass [1]; Preemergence, 62 g ai/ha): 50
Plant response rating, Barnyardgrass (barnyardgrass [1]; preemergence, 125 g ai/ha): 75
Plant response rating, Barnyardgrass (barnyardgrass [1]; preemergence, 250 g ai/ha): 95
Plant response rating, Rice (rice; 31 g ai/ha): 0
Plant response rating, Rice (rice; 62 g ai/ha): 15
Plant response rating, Rice (rice; 125 g ai/ha): 20
Plant response rating, Rice (rice; 250 g ai/ha): 20
Morningglory plant response rating (morningglory; 16 g ai/ha): 0
Morningglory plant response rating (morningglory; 31 g ai/ha): 15
Morningglory plant response rating (morningglory; 62 g ai/ha): 65
Plant response rating, Morningglory (morningglory; 125 g ai/ha): 75
Plant response rating, Morningglory (morningglory; 250 g ai/ha): 100
Foxtail, Giant plant response rating (giant foxtail; 16 g ai/ha): 5
Foxtail, Giant plant response rating (giant foxtail; 31 g ai/ha): 10
Foxtail, Giant plant response rating (giant foxtail; 62 g ai/ha): 85
Plant response rating, Foxtail, Giant (giant foxtail; 125 g ai/ha): 100
Plant response rating, Foxtail, Giant (giant foxtail; 250 g ai/ha): 100
Johnsongrass plant response rating (johnsongrass; 16 g ai/ha): 0
Johnsongrass plant response rating (johnsongrass; 31 g ai/ha): 0
Johnsongrass plant response rating (johnsongrass; 62 g ai/ha): 60
Plant response rating, Johnsongrass (johnsongrass; 125 g ai/ha): 75
Plant response rating, Johnsongrass (johnsongrass; 250 g ai/ha): 100
Goosegrass plant response rating (goosegrass; 16 g ai/ha): 15
Goosegrass plant response rating (goosegrass; 31 g ai/ha): 25
Goosegrass plant response rating (goosegrass; 62 g ai/ha): 65
Plant response rating, Goosegrass (goosegrass; 125 g ai/ha): 98
Plant response rating, Goosegrass (goosegrass; 250 g ai/ha): 98
Field Bindweed plant response rating (field bindweed; 16 g ai/ha): 0
Field Bindweed plant response rating (field bindweed; 31 g ai/ha): 5
Field Bindweed plant response rating (field bindweed; 62 g ai/ha): 60
Plant response rating, Field Bindweed (field bindweed; 125 g ai/ha): 60
Plant response rating, Field Bindweed (field bindweed; 250 g ai/ha): 100
Plant response rating, Sedge, Umbrella (sedge, umbrella; 31 g ai/ha): 60
Plant response rating, Sedge, Umbrella (sedge, umbrella; 62 g ai/ha): 80
Plant response rating, Sedge, Umbrella (sedge, umbrella; 125 g ai/ha): 90
Plant response rating, Sedge, Umbrella (sedge, umbrella; 250 g ai/ha): 95
Corn plant response rating (corn; 16 g ai/ha): 0
Corn plant response rating (corn; 31 g ai/ha): 0
Corn plant response rating (corn; 62 g ai/ha): 0
Plant response rating, Corn (corn; 125 g ai/ha): 30
Plant response rating, Corn (corn; 250 g ai/ha): 50
Plant response rating, Barnyardgrass (barnyardgrass [2]; 31 g ai/ha): 0
Plant response rating, Barnyardgrass (barnyardgrass [2]; 62 g ai/ha): 0
Plant response rating, Barnyardgrass (barnyardgrass [2]; 125 g ai/ha): 30
Plant response rating, Barnyardgrass (barnyardgrass [2]; 250 g ai/ha): 40

FC(F)(F)c1cnn(-c2ccccc2Oc2ncc(Br)cn2)c1 [Compound 18, 5-bromo-2-[2-[4-(trifluoromethyl)-1H-pyrazol-1-yl]phenoxy]pyrimidine]
Arrowleaf Sida plant response rating (arrowleaf sida; 16 g ai/ha, preemergence): 0
Arrowleaf Sida plant response rating (arrowleaf sida; 31 g ai/ha, preemergence): 5
Plant response rating, Arrowleaf Sida (arrowleaf sida; Preemergence, 62 g ai/ha): 70
Plant response rating, Arrowleaf Sida (arrowleaf sida; preemergence, 125 g ai/ha): 85
Plant response rating, Arrowleaf Sida (arrowleaf sida; preemergence, 250 g ai/ha): 95
Barnyardgrass plant response rating (barnyardgrass [1]; 16 g ai/ha, preemergence): 0
Barnyardgrass plant response rating (barnyardgrass [1]; 31 g ai/ha, preemergence): 0
Plant response rating, Barnyardgrass (barnyardgrass [1]; Preemergence, 62 g ai/ha): 0
Plant response rating, Barnyardgrass (barnyardgrass [1]; preemergence, 125 g ai/ha): 5
Plant response rating, Barnyardgrass (barnyardgrass [1]; preemergence, 250 g ai/ha): 20
Plant response rating, Rice (rice; 31 g ai/ha): 0
Plant response rating, Rice (rice; 62 g ai/ha): 0
Plant response rating, Rice (rice; 125 g ai/ha): 0
Plant response rating, Rice (rice; 250 g ai/ha): 10
Morningglory plant response rating (morningglory; 16 g ai/ha): 0
Morningglory plant response rating (morningglory; 31 g ai/ha): 0
Morningglory plant response rating (morningglory; 62 g ai/ha): 0
Plant response rating, Morningglory (morningglory; 125 g ai/ha): 0
Plant response rating, Morningglory (morningglory; 250 g ai/ha): 35
Foxtail, Giant plant response rating (giant foxtail; 16 g ai/ha): 0
Foxtail, Giant plant response rating (giant foxtail; 31 g ai/ha): 15
Foxtail, Giant plant response rating (giant foxtail; 62 g ai/ha): 65
Plant response rating, Foxtail, Giant (giant foxtail; 125 g ai/ha): 95
Plant response rating, Foxtail, Giant (giant foxtail; 250 g ai/ha): 98
Johnsongrass plant response rating (johnsongrass; 16 g ai/ha): 0
Johnsongrass plant response rating (johnsongrass; 31 g ai/ha): 0
Johnsongrass plant response rating (johnsongrass; 62 g ai/ha): 0
Plant response rating, Johnsongrass (johnsongrass; 125 g ai/ha): 80
Goosegrass plant response rating (goosegrass; 16 g ai/ha): 0
Goosegrass plant response rating (goosegrass; 31 g ai/ha): 0
Goosegrass plant response rating (goosegrass; 62 g ai/ha): 30
Plant response rating, Goosegrass (goosegrass; 125 g ai/ha): 90
Plant response rating, Goosegrass (goosegrass; 250 g ai/ha): 98
Field Bindweed plant response rating (field bindweed; 16 g ai/ha): 0
Field Bindweed plant response rating (field bindweed; 31 g ai/ha): 0
Field Bindweed plant response rating (field bindweed; 62 g ai/ha): 30
Plant response rating, Field Bindweed (field bindweed; 125 g ai/ha): 40
Plant response rating, Field Bindweed (field bindweed; 250 g ai/ha): 40
Plant response rating, Sedge, Umbrella (sedge, umbrella; 31 g ai/ha): 70
Plant response rating, Sedge, Umbrella (sedge, umbrella; 62 g ai/ha): 75
Plant response rating, Sedge, Umbrella (sedge, umbrella; 125 g ai/ha): 85
Plant response rating, Sedge, Umbrella (sedge, umbrella; 250 g ai/ha): 90
Corn plant response rating (corn; 16 g ai/ha): 0
Corn plant response rating (corn; 31 g ai/ha): 0
Corn plant response rating (corn; 62 g ai/ha): 0
Plant response rating, Corn (corn; 125 g ai/ha): 0
Plant response rating, Corn (corn; 250 g ai/ha): 0
Plant response rating, Barnyardgrass (barnyardgrass [2]; 31 g ai/ha): 0
Plant response rating, Barnyardgrass (barnyardgrass [2]; 62 g ai/ha): 0
Plant response rating, Barnyardgrass (barnyardgrass [2]; 125 g ai/ha): 10
Plant response rating, Barnyardgrass (barnyardgrass [2]; 250 g ai/ha): 20
